Experimental data as given in patent US10703764B2, “Benzopiperazine compositions as BET bromodomain inhibitors” (FORMA Therapeutics, Inc., priority 2013, dated 2020).

How the values were obtained:
BRD4 BD2 = target: T1, BRD4 BD2 (Homo sapiens, UniProt O60885); test: AlphaScreen binding assay, BRD4 Bromodomain 2
T1 construct: made in house
Procedure, shortened: (§1)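 Compound dilution series were mixed with His-tagged BRD4 bromodomain and biotinylated tetra-acetylated H4 (1-21) peptide at pH 7.3 (BD1 and peptide at 50 nM, BD2 and peptide at 100 nM). Donor and acceptor beads were then added, and plates were equilibrated at least 1 h before reading. IC50 values were fitted with a four-parameter logistic model.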

MV4-11 cells = test: Oncology cell growth assay (3-day proliferation, CellTiter-Glo); format: cell-based; conditions: Homo sapiens, MV4-11, 72 h, AML cell line MV4-11, 72 hours, compounds grouped by IC50 range, read-out: MV4-11 IC50 (inhibition of proliferation, gIC50)
Procedure, shortened: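 A 3-day proliferation test used MV4-11 cells seeded at 3000 per well with eight compound concentrations (10 μM top, 3-fold dilution) at 37° C in 5% CO2. CellTiter-Glo luminescence defined viable cell signal. A four-parameter logistic curve against DMSO and background wells gave the gIC50.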

BRD4 BD1 = target: T2, BRD4 BD1 (Homo sapiens, UniProt O60885); test: AlphaScreen binding assay, BRD4 Bromodomain 1
T2 construct: made in house
Procedure, shortened: as §1

Structure (SMILES)	IC50 (BRD4 BD2) [nM]	IC50 (MV4-11 cells) [nM]	IC50 (BRD4 BD1) [nM]
CCS(=O)(=O)c1cccc(-c2ccc3c(c2)N(C(=O)OC(C)C)C[C@H](C)N3C(C)=O)c1 [Example I-1093]	50 to 500	100 to 500	100 to 1000
CCS(=O)(=O)Nc1cccc(-c2ccc3c(c2)N(C(=O)OC2CCOCC2)C[C@H](C)N3C(C)=O)c1 [Example I-1228]	50 to 500	100 to 500	100 to 1000
CC(=O)N1c2ccc(-c3cnn(CC4CC4)c3)cc2N(C(=O)OC(C)C)C[C@@H]1C [Example I-308]	50 to 500	100 to 500	100 to 1000
CC(=O)N1c2ccc(-c3cnn(Cc4nonc4C)c3)cc2N(C(=O)C2CC2)C[C@@H]1C [Example I-147, (S)-1-(4-(cyclopropanecarbonyl)-2-methyl-6-(1-((4-methyl-1,2,5-oxadiazol-3-yl)methyl)-1H-pyrazol-4-yl)-3,4-dihydroquinoxalin-1 (2H)-yl)ethanone]	50 to 500	100 to 500	100 to 1000
CC(=O)N1c2ccc(-c3ccc(S(=O)(=O)C(C)C)cc3)cc2N(C(=O)C2CC2)C[C@@H]1C [Example I-1062]	50 to 500	> 500	1000 to 10000
CC(=O)N1c2ccc(-c3ccc(C(=O)NC4CC4)cc3)cc2N(C(=O)c2ccco2)C[C@@H]1C [Example I-292]	> 500	100 to 500	1000 to 10000
CC(=O)N1c2ccc(-c3ccc(S(C)(=O)=O)cc3)cc2N(C(=O)OC2CCCC2)C[C@@H]1C [Example I-236]	> 500	> 500	1000 to 10000
CNS(=O)(=O)c1cccc(-c2ccc3c(c2)N(C(=O)OC2CCOCC2)C[C@H](C)N3C(C)=O)c1 [Example I-1254]	50 to 500	< 100	100 to 1000
CC(=O)N1c2ccc(-c3ccc(C(=O)N4CCNC(=O)C4)cc3)cc2N(C(=O)OC(C)C)C[C@@H]1C [Example I-547]	50 to 500	100 to 500	100 to 1000
CC(C)OC(=O)N1C[C@H](C)N(C(=O)C2CC2)c2ccc(-c3ccc(C(=O)N4CC(O)C4)cc3)cc21 [Example I-578]	50 to 500	100 to 500	100 to 1000
CCOC(=O)N1C[C@H](C)N(C(C)=O)c2ccc(-c3ccc(S(=O)(=O)n4cccn4)cc3)cc21 [Example I-1117]	50 to 500	> 500	1000 to 10000
CNS(=O)(=O)c1ccc(-c2ccc3c(c2)N(C(=O)OC2CCCCC2)C[C@H](C)N3C(C)=O)cc1 [Example I-1261]	50 to 500	100 to 500	100 to 1000
CC(=O)N1c2ccc(-c3ccc(N4CCS(=O)(=O)CC4)cc3)cc2N(C(=O)c2ccco2)C[C@@H]1C [Example I-417]	< 50	< 100	100 to 1000
CC(=O)N1c2ccc(-c3ccc(S(=O)(=O)NCCO)cc3)cc2N(C(=O)C2CCC2)C[C@@H]1C [Example I-1036]	50 to 500	100 to 500	1000 to 10000
CC(=O)N1c2ccc(-c3ccc(S(=O)(=O)NCCO)cc3)cc2N(C(=O)c2ccco2)C[C@@H]1C [Example I-293]	< 50	100 to 500	1000 to 10000
CCOC(=O)N1C[C@H](C)N(C(C)=O)c2ccc(-c3cccc(S(C)(=O)=O)c3)cc21 [Example I-1052]	50 to 500	> 500	1000 to 10000
CC(=O)N1c2ccc(-c3cnn(CCO)c3)cc2N(C(=O)Oc2ccccn2)C[C@@H]1C [Example I-1334]	50 to 500	100 to 500	100 to 1000
CC(=O)N1c2ccc(-c3ccc4c(c3)N(C)S(=O)(=O)N4)cc2N(C(=O)OC(C)C)C[C@@H]1C [Example I-1177]	50 to 500	> 500	100 to 1000
CC(=O)N1c2ccc(-c3cccc(S(=O)(=O)C4CC4)c3)cc2N(C(=O)C2CC2)C[C@@H]1C [Example I-1086]	50 to 500	> 500	1000 to 10000
CC(=O)N1c2ccc(-c3ccc(C(=O)N4CCN(S(C)(=O)=O)CC4)cc3)cc2N(C(=O)OC(C)C)C[C@@H]1C [Example I-549]	50 to 500	100 to 500	100 to 1000
CC(=O)N1c2ccc(-c3cnn(CC4(CO)COC4)c3)cc2N(C(=O)OC(C)C)C[C@@H]1C [Example I-600]	< 50	100 to 500	< 100
CC(=O)N1c2ccc(-c3cnn(C4CCCS(=O)(=O)C4)c3)cc2N(C(=O)OC(C)C)C[C@@H]1C (stereo partly drawn) [Example I-1311]	50 to 500	100 to 500	100 to 1000
CC(=O)N1c2ccc(-c3cnn(CCO)c3)cc2N(C(=O)OCC(F)(F)F)C[C@@H]1C [Example I-82, (S)-2,2,2-trifluoroethyl 4-acetyl-7-(1-(2-hydroxyethyl)-1H-pyrazol-4-yl)-3-methyl-3,4-dihydroquinoxaline-1(2H)-carboxylate]	> 500	> 500	> 10000
C[C@H]1CN(C(=O)C2CC2)c2cc(-c3cnn(C4CC4)c3)ccc2N1C(=O)C1CC1 [Example I-377]	50 to 500	100 to 500	100 to 1000
CC(=O)N1c2ccc(-c3ccc(S(C)(=O)=O)cc3)cc2N(C(=O)C2CCC2)C[C@@H]1C [Example I-245]	50 to 500	> 500	1000 to 10000
CC(=O)N1c2ccc(-c3cccc(S(=O)(=O)C4CC4)c3)cc2N(C(=O)OC2CCOCC2)C[C@@H]1C [Example I-1244]	50 to 500	100 to 500	100 to 1000
